Experimental data from patent US20090062382A1, “EXTERNAL PREPARATION FOR IMPROVING COITAL FUNCTION” (CARDIOVASCULAR INSTITUTE, LTD., priority 2003, published 2009).

System: penis
Experiment: Clinical study: penile temperature change by thermography
Assay type: in vivo, human
Conditions: intra-urethral infusion; FIG. 7
Description: Five (5) healthcare workers of 60 to 69 years old having no early-morning erection were subjected to the study. After obtaining verbal informed consent, the study was carried out from May 2001 through February 2003 as described below.
After keeping the subjects at rest with naked from the waist down for 5 minutes at room temperature of 25° C. and humidity of 60%, temperature of a penis, oxygen saturation in a penile sponge body, and hardness of a penis were measured. The measurement was carried out before administration of the preparation as reference and at 1, 3, 6, 12, 24 and 36 hours after administration, and the value of change (changed value±average error) were recorded. When there was no change at 3 hours after administration, the preparation was considered not effective and measurement thereafter was quitted.
Embrocation: 0.5 ml of each preparation was applied all over to a glans and a penis.
The relevant infusion apparatus was inserted into a urethra, and 0.5 ml of the preparation was infused by rotating a cylinder.
Temperature rise reflects increased blood-flow. So, penile temperature was measured by a thermography (Thermo Tracer TH5108, NEC San-ei Instruments, Ltd.). As this instrument can display a measurement site and temperature of the site numerically on a screen, measurements before and after administrations were possible to be performed at the same position. […]

In the case of `CC#CCC(C)[C@H](O)/C=C/[C@@H]1[C@H]2c3cccc(CCCC(=O)[O-])c3O[C@H]2C[C@H]1O.[Na+]` (relative stereo) [beraprost sodium, (+)-(1R*,2R*,3aS*,8bS*)-2,3,3a,8b-tetrahydro-2-hydroxy-1-[(e)-(3S*)-3-hydroxy-4-methyl-1-octene-6-ynyl]-1H-cyclopenta [b]benzofuran-5-butanoic acid sodium salt], the “level and duration of temperature increase” value is reported as “low”.
